{
  "source": "patent US20140349314A1",
  "about": "“METHODS AND COMPOSITIONS FOR DETECTING AND TREATING INFLAMMATORY DISEASE” (Beth Israel Deaconess Medical Center, Inc., priority 2010, published 2014)",
  "key": {"[1]": {"tested_on": "MP-stimulated MMP-3 mRNA expression in HSC", "experiment": "Signaling pathway inhibition: MP-stimulated MMP-3 mRNA expression in HSC", "type": "cell-based, human", "settings": "for inhibition of MP-stimulated MMP-3 induction: vs untreated S100-MP stimulated controls, SB 5 μg/mL, MG 15 μg/mL", "procedure": "In order to define major signaling pathways that lead to MMP-induction by S100-MP, we used specific inhibitors of several kinases. MP-stimulated MMP-3 mRNA expression served as fibrolytic read-out.\nPathway inhibition experiments were performed in 24 hour serum-starved HSC. […] The proteasome inhibitor MG132 (Rockland Inc., USA) was used to block NFκB nuclear translocation and activity."}, "[2]": {"tested_on": "human LX-2 hepatic stellate cells (HSC)", "experiment": "Fibrosis-related transcript levels by quantitative RT-PCR in LX-2 HSC incubated with T cell-derived MP", "type": "cell-based", "settings": "24 hours", "procedure": "Effect of S100 T Cell-MP on Fibrosis-Related Gene Expression by HSC Fibrosis related transcripts were measured from 200×10^3 serum-starved human LX-2 HSC 24 hours after addition of 1×10^3 or 50×10^3 S100-MP from Jurkat T cells using quantitative RT-PCR. S10-MP, plain medium, and ST alone served as controls. MP were obtained from PHA-activated and/or apoptotic (ST-treated) Jurkat T cells. After T cell apoptosis induction, significant changes in fibrosis-related transcripts were found with 50×10^3 S100-MP, while equivalent amounts of S10-MP had no effect (FIG. 6). […] Similar results were obtained when S100-MP were incubated with freshly isolated primary rat HSC. Here the human S100-MP induced MMP-3 even 9-fold (FIG. 7).\nFor induction of apoptosis T cells were cultured in RPMI and treated with 4 μM/mL Staurosporine (ST, Cell Signaling Technology®, Danvers, Mass.) for 4 hours. […]\n(§1) HSC (200×10^3/well) were seeded into six-well cell culture plates and serum-starved as above. […] Relative transcript levels were quantified by real-time RT-PCR on a LightCycler 1.5 instrument (Roche, Mannheim, Germany) using the TaqMan methodology as described previously (52). […] Experiments were performed in triplicates and values represent means±SD, being expressed as arbitrary units relative to the housekeeping gene beta2-microglobulin."}, "HSC [3]": {"tested_on": "HSC", "experiment": "Apoptosis assay (Annexin V / 7-AAD FACS) in HSC", "type": "cell-based, human", "procedure": "It was reported earlier that MP derived from macrophages could trigger apoptosis in recipient cells.\n24 hrs serum-starved HSC were incubated with S100-MP for 24 hrs. Apoptosis and necrosis induction by S100-MP were assessed by FACS analysis for Annexin V and 7-aminoactinomycin D staining (both from eBioscience™, San Diego, Calif., USA) on a LSR2 FACS analyzer with CELLQuest software (Becton Dickinson, San Jose, Calif.)."}, "[4]": {"tested_on": "TGFβ1 (5 ng/mL)-activated HSC", "experiment": "Fibrosis-related transcript levels in TGFβ1-activated HSC incubated with S100-MP", "type": "cell-based, human", "settings": "5 ng/mL TGFβ1", "procedure": "FIG. 9 is a series of graphs showing mRNA transcript levels of the indicated gene in TGFβ1 (5 ng/mL)-activated HSC when incubated with the indicated amount of S100-MP for 24 hours. All experiments were performed at least twice with n=3-4 per group. Results (means±SD) are expressed as arbitrary units relative to beta2-microglobulin mRNA; *p<0.05 vs. medium control.\nHuman HSC were exposed to 5 ng/mL TGFβ1, which elicits a strong fibrogenic response. […] Thus TGFβ1 enhanced HSC procollagen α1(I) expression 2.7-fold, which after MP addition was reduced by almost 40%, and MP increased the expression of MMP-3 and MMP-13 almost 2.5- and 2.1-fold, respectively.\nas §1, with “above. HSC were then incubated with 1×10^3 or 50×10^3 S10-MP or S100-MP for 24 hours, followed by total RNA extraction from cells using TRIzol (Invitrogen, Carlsbad, Calif.). One μg of RNA was reverse-transcribed using random primers and Superscript RNase H-reverse transcriptase (Invitrogen).” for “above.”"}, "HSC [5]": {"tested_on": "HSC", "experiment": "MMP transcript levels in HSC after S100-MP with or without TNFα", "type": "cell-based, human", "procedure": "FIG. 13C is a graph showing mRNA transcript levels of the indicated MMP gene in HSC after addition of S100-MP with or without TNFα (10 ng/mL) for 24 h (*p<0.05, **p=0.04, ***p=0.001).\nIt remained to be shown what cell membrane molecule(s) or receptor(s) mediate(s) attachment and uptake of S100-MP by HSC. […] Assuming that ICAM-1 on the recipient HSC is engaged by CD11a/CD18 on the S100-MP, any treatment of HSC that increases CD54 should enhance MP uptake and subsequent fibrolytic activation of HSC. We therefore incubated HSC with 10 ng/mL TNF-α, a strong inducer of CD54, which induced a robust (>10-fold) upregulation of CD54 after 24 hrs (FIG. 13B). This led to a further significant MP-induced increase (by 40%) of MMP-3 mRNA expression in the induced HSC as compared to untreated HSC (FIG. 13C). […] For MMP-3 the effect of combined TNF-α and MP treatment was overadditive as compared to the added effects of TNF-α or S100-MP alone (FIG. 13C)."}, "CD54 (ICAM-1) on HSC": {"tested_on": "CD54 (ICAM-1) on HSC", "experiment": "ICAM-1 (CD54) upregulation on HSC by TNFα (flow cytometry)", "type": "cell-based, human", "procedure": "TNFα (PEPROTECH®, Rocky Hill, N.J., USA) was added to HSC cultures, and ICAM-1 expression assessed after 2, 4 and 24 hrs by flow cytometric analysis using anti-ICAM-1-FITC (eBioscience™, San Diego, Calif., USA) on a LSR2 FACS analyzer as described above."}},
  "note": "Where a SMILES comes first, the peptide text is derived from it. The star is where a group is joined. Cbz = O=C(OCc1ccccc1)*",
  "data": [
    {"compound": "CC(C)C[C@@H](C=O)NC(=O)[C@H](CC(C)C)NC(=O)[C@H](CC(C)C)NC(=O)OCc1ccccc1", "note": "[MG132] (Cbz-Leu-Leu-Leu-aldehyde)", "values": [
      {"measurement": "inhibition of MP-stimulated MMP-3 induction", "setting": "[1]", "value": 50, "unit": "%"}
    ]},
    {"compound": "C[S+]([O-])c1ccc(-c2nc(-c3ccncc3)c(-c3ccc(F)cc3)[nH]2)cc1", "note": "(stereo not drawn) [SB203580]", "values": [
      {"measurement": "inhibition of MP-stimulated MMP-3 induction", "setting": "[1]", "value": 50, "unit": "%"}
    ]},
    {"compound": "CN[C@@H]1C[C@H]2O[C@@](C)([C@@H]1OC)n1c3ccccc3c3c4c(c5c6ccccc6n2c5c31)C(=O)NC4", "note": "[ST, staurosporine]", "values": [
      {"measurement": "effect on fibrosis-related gene expression (MMPs, TIMP-1, procollagen α1(I)) in HSC, in words", "setting": "[2]", "value": "induced only MMP-9"},
      {"measurement": "apoptosis or necrosis induction in HSC, in words", "setting": "HSC [3]; 24 hours of incubation, ST 0.04 μM/mL", "value": "induced apoptosis"},
      {"measurement": "late apoptosis of HSC", "setting": "HSC [3]; 24 hours, ST alone", "value": "≤ 10", "unit": "%"},
      {"measurement": "necrosis of HSC", "setting": "HSC [3]; 24 hours, ST alone", "value": "up to 14%"},
      {"measurement": "higher percentage of late apoptotic HSC compared to S100-MP", "setting": "HSC [3]; ST 0.04 μM/mL, 7-AAD/Annexin FACS", "value": 7, "unit": "fold"}
    ]},
    {"compound": "N#CC(=C(/N)Sc1ccccc1N)/C(C#N)=C(\\N)Sc1ccccc1N", "note": "[U0126]", "values": [
      {"measurement": "effect on MP-stimulated MMP-3 mRNA, in words", "setting": "[1]", "value": "Complete abrogation"}
    ]},
    {"compound": "TGFβ1: profibrogenic cytokine used to activate HSC", "values": [
      {"measurement": "enhancement of HSC procollagen α1(I) expression", "setting": "[4]", "value": 2.7, "unit": "fold"}
    ]},
    {"compound": "TNF-α", "values": [
      {"measurement": "further MP-induced increase of MMP-3 mRNA in TNF-α-induced HSC as compared to untreated HSC", "setting": "HSC [5]; TNF-α 10 ng/mL plus S100-MP, 24 h", "value": 40, "unit": "%"},
      {"measurement": "effect of TNF-α alone on HSC MMP-3 mRNA", "setting": "HSC [5]; TNF-α alone", "value": "not capable to enhance"},
      {"measurement": "effect of TNF-α alone on HSC MMP-9 and MMP-13 expression", "setting": "HSC [5]; TNF-α alone", "value": "modestly induced"},
      {"measurement": "effect of combined TNF-α and MP treatment on MMP-3 compared to added single effects", "setting": "HSC [5]; TNF-α plus S100-MP", "value": "overadditive"},
      {"measurement": "upregulation of CD54 on HSC", "setting": "CD54 (ICAM-1) on HSC; 10 ng/mL TNF-α, after 24 hrs", "value": "> 10", "unit": "fold"},
      {"measurement": "upregulation of CD54 on HSC", "setting": "CD54 (ICAM-1) on HSC; TNFα 10 ng/mL for 0, 4, and 24 hours", "value": 40, "unit": "%"}
    ]}
  ]
}
